Key:
[1] = tested on: Ear Edema Caused By Tetradecanoylphorbol Acetate; assay: Inhibition of Ear Edema Caused by Tetradecanoylphorbol Acetate (II), Table 7; assay type: in vivo, CF-1 Mice; conditions: i.p., 3 h
Procedure: Inhibition of Ear Edema Caused by Tetradecanoylphorbol Acetate (II)
CF-1 Mice, 25-30 g body weight, six animals per group were used. Test compounds were administered intraperitoneally or topically as follows. For intraperitoneal administration, the test compound was dissolved in dimethyl sulfoxide or 0.5% methylcellulose and 100 microliters was injected 30 minutes prior to irritant (100 mg/kg, i.p.). […] A solution of the irritant, tetradecanoylphorbol acetate, 200 μg/mL, was added to the surface of the ear, 5 μL to the upper surface and 5 μL to the lower surface. After three hours, the thickness of the ear was measured to 0.01 mm by a micrometer with loose drag, positioned at the lateral-most edge of the mid-point of the pinna. Data were calculated as the inhibition of increased ear thickness compared to control animals receiving only the irritant.

[2] = tested on: Ear Edema Caused by Arachidonic Acid; assay: Inhibition of Ear Edema Caused by Arachidonic Acid (II), Table 8; assay type: in vivo, CF-1 mice; conditions: i.p., sixty minutes
Procedure: Inhibition of Ear Edema Caused by Arachidonic Acid (II)
CF-1 mice, 25-30 g body weight, six animals per group, were used. The requisite amount of the test compound was dissolved is dimethyl sulfoxide or 0.5% methylcellulose and 100 μL of the solution was injected intraperitoneally 30 minutes prior to the administration of 100 mg/kg of arachidponic acid. A solution of this irritant, b 100 mg/mL in ethanol, was applied to the surface of the ear, 5 μL to the upper surface and 5 μL to the lower surface. After sixty minutes, the thickness of the ear was measured to 0.01 mm by a micrometer with the loose drag positioned at the lateral-most edge of the mid-point of the pinna. Data were calculated as the percent inhibityion by the test compound of increased ear thickness compared to control animals recieveing only the irritant.

[3] = tested on: Ear Edema Caused by Xylene; assay: Inhibition of Ear Edema Caused by Xylene (II), Table 9; assay type: in vivo, CF-1 mice; conditions: i.p., 2 h
Procedure: Inhibition of Ear Edema Caused by Xylene (II)
CF-1 mice, 25-30 g body weight, six animals per group, were used. The requisite amount of the test compound was dissolved is dimethyl sulfoxide or 0.5% methylcellulose and 100 μL of the solution was injected intraperitoneally 30 minutes prior to the administration the irritant. The irritant xylene was applied to the surface of the ear, 20 μL to the upper surface and 20 μL to the lower surface, After two hours, the thickness of the ear was measured to 0.01 mm by a micrometer with the loose drag positioned at the lateral-most edge of the mid-point of the pinna. Data were calculated as the percent inhibition by the test compound of increased ear thickness compared to control animals receiving only the irritant.

[4] = tested on: Ear Edema Caused by Oxazolone; assay: Inhibition of Ear Edema Caused by Oxazolone (II), Table 10; assay type: in vivo, CF-1 mice; conditions: i.p., 24 h
Procedure: Inhibition of Ear Edema Caused by Oxazolone (II)
CF-1 mice, 25-30 g body weight, five to six animals per group were used. The mice were sensitized to the irritant two weeks prior to the test by dribbling 100 μL of a 3% solution of oxazolone in acetone onto the abdominal skin of the animal. Test compounds were administered intraperitoneally as follows. […] The irritant, 3% oxazolone in acetone, was added to the surface of the ear, 5 μL added to the upper surface and 5 μL added to the lower surface. After twenty four hours, the thickness of the ear was measured to 0.01 mm by a micrometer with loose drag, positioned at the lateral-most edge of the mid-point of the pinna. Data were calculated as the inhibition of increased ear thickness compared to control animals' receiving only the irritant.

SMILES | % Inhibition Intraperitoneal ([1]; 10 mg/kg) [%] | % Inhibition Intraperitoneal ([1]; 30 mg/kg) [%] | % Inhibition Intraperitoneal ([1]; 100 mg/kg) [%] | % Inhibition Intraperitoneal ([2]; 10 mg/kg) [%] | % Inhibition Intraperitoneal ([2]; 30 mg/kg) [%] | % Inhibition Intraperitoneal ([2]; 100 mg/kg) [%] | % Inhibition ([3]; 10 mg/kg) [%] | % Inhibition ([3]; 30 mg/kg) [%] | % Inhibition ([3]; 100 mg/kg) [%] | % Inhibition Intraperitoneal ([4]; 10 mg/kg) [%] | % Inhibition Intraperitoneal ([4]; 30 mg/kg) [%] | % Inhibition Intraperitoneal ([4]; 100 mg/kg) [%]
Cc1cccc2c1-c1ccccc1C2COC(=O)N[C@H](C(=O)O)C(C)(C)C (stereo partly drawn) [NPC 15904, N-{[9H-(4-Methylfluoren-9-yl)methoxy]carbonyl}-L-tert-leucine] | 16 | 0 | 43 | 19 | 54 | 79 | 0 | 10 | 68 | 21 | 54 | 79
Cc1cccc2c1-c1ccccc1C2COC(=O)N[C@@H](CCc1ccccc1)C(=O)O (stereo partly drawn) [NPC 15961, N-{[9H-(4-Methylfluoren-9-yl)methoxy]carbonyl}-L-homophenylalanine] | – | – | – | – | – | – | 41 | 41 | 57 | 29 | 23 | 92
COc1ccc2c(c1)C(CCC(=O)N[C@@H](CC(C)C)C(=O)O)c1ccccc1-2 (stereo partly drawn) [NPC 15968, N-{9H-[3-(2-Methoxyfluoren-9-yl)propionyl]}-L-leucine] | – | – | – | – | – | – | 23 | 62 | 57 | 24 | 24 | 66
O=C(CCC1c2ccccc2-c2ccccc21)N[C@@H](CCc1ccccc1)C(=O)O [NPC 15895, N-[3-(9H-Fluoren-9-yl)propionyl]-L-Homophenylalanine, quarter hydrate] | 68 | 71 | 67 | 14 | 26 | 52 | 0 | 0 | 51 | 4 | 12 | 71
CCCC[C@H](NC(=O)OCC1c2ccccc2-c2cccc(C)c21)C(=O)O (stereo partly drawn) [NPC 15951, N-{[9H-(1-Methylfluoren-9-yl)methoxy]carbonyl}-L-norleucine] | 41 | 39 | 70 | 11 | 18 | 56 | 40 | 62 | 62 | 33 | 23 | 49
O=C(CCC1c2ccccc2-c2ccccc21)N[C@@H](Cc1ccccc1)C(=O)O [NPC 15896, N-[3-(9H-Fluoren-9-yl)propionyl]-L-Phenylalanine] | 0 | 0 | 84 | 16 | 24 | 72 | 28 | 24 | 21 | – | – | –
Cc1cccc2c1-c1ccccc1C2CCC(=O)N[C@@H](CC(C)C)C(=O)O (stereo partly drawn) [NPC 15975, N-{9H-[3-(4-Methylfluoren-9-yl)propionyl]}-L-leucine quarter hydrate] | – | – | – | – | – | – | 51 | 22 | 49 | 36 | 19 | 73
Cc1cccc2c1-c1ccccc1C2COC(=O)N[C@@H](CC(C)C)C(=O)O (stereo partly drawn) [NPC 15325, N-{[9H-(4-Methylfluoren-9-yl)methoxy]carbonyl}-L-leucine] | 36 | 11 | 82 | 52 | 63 | 100 | 16 | 25 | 78 | 22 | 24 | 49
CCCC[C@H](NC(=O)CCC1c2ccccc2-c2ccccc21)C(=O)O [NPC 15894, N-[3-(9H-Fluoren-9-yl)propionyl]-L-norleucine, quarter hydrate] | 11 | 0 | 68 | 22 | 40 | 60 | 0 | 0 | 34 | 29 | 14 | 35
CCCC[C@H](NC(=O)CCC1c2ccccc2-c2cccc(C)c21)C(=O)O (stereo partly drawn) [NPC 15976, N-[9H-[3-(1-Methylfluoren-9-yl)propionyl]}-L-norleucine, quarter hydrate] | – | – | – | – | – | – | 59 | 33 | 62 | 10 | 8 | 73
CCOC(=O)[C@H](CC(C)C)NC(=O)OCC1c2ccccc2-c2ccccc21 [NPC 15327, N-[(9H-Fluoren-9-ylmethoxy)carbonyl]-L-leucine ethyl ester] | 37 | 64 | 77 | – | – | – | 18 | 8 | 19 | – | – | –
CC(C)C[C@H](NC(=O)OCC1c2ccccc2-c2ccccc21)C(=O)OCc1ccccc1 [NPC 15328, N-[(9H-Fluoren-9-ylmethoxy)carbonyl]-L-leucine benzyl ester] | 49 | 47 | 62 | – | – | – | 19 | 29 | 13 | – | – | –
Cc1cccc2c1C(COC(=O)N[C@H](C(=O)O)C(C)(C)C)c1ccccc1-2 (stereo partly drawn) [NPC 15952, N-{[9H-(1-Methylfluoren-9-yl)methoxy]carbonyl}-L-tert-leucine] | 27 | 75 | 67 | 43 | 47 | 50 | 29 | 39 | 43 | 21 | 24 | 72
Cc1cccc2c1C(CCC(=O)N[C@@H](CCc1ccccc1)C(=O)O)c1ccccc1-2 (stereo partly drawn) [NPC 15974, N-{9H-[3-(1-Methylfluoren-9-yl)propionyl]}-L-homophenylalanine] | – | – | – | – | – | – | 48 | 57 | 59 | 0 | 23 | 48
